Experiment [1] concerns the target PEG-3 (UniProt Q6IN02). The experiment is described as follows: Peg3 promoter luciferase inhibitors, potency, dose response, cell-based, HeLa, CREF/GAPDH counter-screen panel (AID 624167). Conditions: HeLa PEG-Prom luciferase reporter, overnight, CREF/GAPDH counter-screens, mean of runs.
The subject of experiment [2] is PEG-3. Described as above. Conditions: HeLa PEG-Prom luciferase reporter, overnight, CREF/GAPDH counter-screens.
Setting [3] is: run 1, dose range 1, individual replicate IC50 per panel.
[4] abbreviates: run 2, dose range 1, individual replicate IC50 per panel.

Structures are written as SMILES. Activity calls are given as the source filed them.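 How the source made its calls: active means mean IC50 for reducing PEG3 promoter reporter signal at or below a set limit, with IC50 above the limit in both counter screens; inactive means the rest, including counter screen hits.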 Where only a bound is given, the exact number is not on record here.

Chain of PEG-3 (UniProt Q6IN02) (Q6IN02 whole entry, looked up): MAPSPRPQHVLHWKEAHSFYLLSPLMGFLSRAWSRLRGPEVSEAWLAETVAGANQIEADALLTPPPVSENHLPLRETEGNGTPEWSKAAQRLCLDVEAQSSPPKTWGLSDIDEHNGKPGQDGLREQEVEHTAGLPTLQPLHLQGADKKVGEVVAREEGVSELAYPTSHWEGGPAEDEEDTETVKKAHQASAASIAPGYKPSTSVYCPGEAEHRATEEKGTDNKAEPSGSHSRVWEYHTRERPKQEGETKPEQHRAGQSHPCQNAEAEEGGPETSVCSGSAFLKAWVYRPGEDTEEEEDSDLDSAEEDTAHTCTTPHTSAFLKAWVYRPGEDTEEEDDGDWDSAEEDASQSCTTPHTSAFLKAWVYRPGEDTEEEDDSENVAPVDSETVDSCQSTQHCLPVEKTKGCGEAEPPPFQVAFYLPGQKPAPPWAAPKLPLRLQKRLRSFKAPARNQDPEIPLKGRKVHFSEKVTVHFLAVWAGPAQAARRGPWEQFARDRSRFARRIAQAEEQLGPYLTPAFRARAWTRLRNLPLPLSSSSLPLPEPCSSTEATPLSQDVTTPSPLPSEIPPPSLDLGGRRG

As for `CCOC(=O)c1ccc2ncc(C(=O)OCC)c(NCCN(C)C)c2c1`, at PEG-3 [1], the IC50 entry is “inactive”. For the same molecule, the IC50 was found to be 15 µM in the experiment with PEG-3 [2] (setting [3]) and 43.4 µM in the experiment with PEG-3 [2] (setting [4]).

As to `CC(C)NC(=O)NC(=O)COC(=O)c1c2c(nc3ccccc13)CCC2`, at PEG-3 [1], the IC50 entry is “inactive”. The IC50 was 16.5 µM in the experiment with PEG-3 [2] (setting [3]) and 27.8 µM with PEG-3 [2] (setting [4]).

`CN(Cc1ccccc1F)C(=O)C(Cc1ccccc1)NC(=O)c1ccccc1` (configuration not stated): on PEG-3 [1], the IC50 result is “inactive”. The figures for the IC50 in the experiment on PEG-3 [2] (setting [3]) and in the experiment with PEG-3 [2] (setting [4]) were 32.3 µM and 95.6 µM, respectively.

In the case of `COc1cc(-c2cc(C(=O)Nc3cc(S(=O)(=O)N4CCOCC4)ccc3C)c3ccccc3n2)cc(OC)c1OC`, the IC50 is 11.8 µM on PEG-3 [1], 11.1 µM in the experiment with PEG-3 [2] (setting [3]) and 12.5 µM in the experiment with PEG-3 [2] (setting [4]).

In the case of `COC(=O)C1=C(C)N(Cc2ccccc2)C(=NCCc2c[nH]c3ccccc23)N[C@H]1c1cccc(C(F)(F)F)c1`, the IC50 result at PEG-3 [1] is “inactive”. For the same molecule, the IC50 with PEG-3 [2] (setting [3]) is 17.8 µM; in the experiment with PEG-3 [2] (setting [4]), 23 µM.

In the case of `CN(C)CC(O)COc1ccc(C(C)(C)c2ccc(OCC(O)CN(C)C)cc2)cc1` (configuration not stated), the IC50 entry on PEG-3 [1] was “inactive”. In addition, the values for the IC50 in the experiment on PEG-3 [2] (setting [3]) and with PEG-3 [2] (setting [4]) were 26.8 µM and greater than 100 µM, respectively.

As to `COc1cc(C=NO)nc(-c2ccccn2)c1`, the IC50 was 0.52 µM on PEG-3 [1], 0.84 µM in the experiment with PEG-3 [2] (setting [3]) and less than 0.2 µM in the experiment with PEG-3 [2] (setting [4]).

On to `CCN(C(=O)CSc1nc2n[nH]c(C)c2c(=N)n1-c1ccc(Cl)c(C)c1)c1cccc(C)c1`, for which the IC50 is 20 µM at PEG-3 [1], 19.1 µM in the experiment with PEG-3 [2] (setting [3]) and 20.8 µM with PEG-3 [2] (setting [4]).

In the case of `N#Cc1cc2c(nc1SC1CC(=O)N(c3ccccc3)C1=O)CCC2` (configuration not stated), on PEG-3 [1], the IC50 result was “inactive”. For the same molecule, the IC50 in the experiment with PEG-3 [2] (setting [3]) was greater than 100 µM; in the experiment with PEG-3 [2] (setting [4]), 1.02 µM.

As to `COc1ccc(S(=O)(=O)N2c3ccccc3OCC2c2ccccc2)cc1` (configuration not stated), the IC50 was > 100 µM (inactive) on PEG-3 [1], greater than 100 µM in the experiment on PEG-3 [2] (setting [3]) and greater than 100 µM in the experiment on PEG-3 [2] (setting [4]).

`c1ccc(-c2cc(-c3nc4ccccc4[nH]3)c3ccccc3n2)cc1`: the IC50 result on PEG-3 [1] is “inactive”. In addition, the values for the IC50 in the experiment on PEG-3 [2] (setting [3]) and in the experiment on PEG-3 [2] (setting [4]) were 15.3 µM and 39.9 µM, respectively.

Turning to `C=CCN=C1NN=C(c2cc(C)n(CC=C)c2C)CS1`, the IC50 was 17.4 µM on PEG-3 [1], 11.5 µM in the experiment with PEG-3 [2] (setting [3]) and 23.3 µM in the experiment with PEG-3 [2] (setting [4]).

Take `O=C(CCl)N1N=C(c2ccco2)CC1c1cccs1` (configuration not stated): the IC50 result at PEG-3 [1] was “inactive”. The IC50 in the experiment with PEG-3 [2] (setting [3]) is 24.2 µM; in the experiment with PEG-3 [2] (setting [4]), 30.4 µM.

Take `CNC[C@H](CC1CCCCC1)NC[C@H](NCCC1CCCC1)[C@H](C)O`: the IC50 entry at PEG-3 [1] was “inactive”. Besides, the IC50 in the experiment with PEG-3 [2] (setting [3]) was found to be 37.6 µM; with PEG-3 [2] (setting [4]), 12.4 µM.

Take `COc1ccc(-c2cc(C(=O)Nc3ccccc3N3CCOCC3)c3ccccc3n2)cc1OC`: the IC50 on PEG-3 [1] was > 100 µM (inactive); with PEG-3 [2] (setting [3]), greater than 100 µM; in the experiment on PEG-3 [2] (setting [4]), greater than 100 µM.

Take `O=C1NC2C(=CC(O)C(O)C2O)c2cc3c(c(O)c21)OCO3` (configuration not stated): the IC50 is 0.293 µM at PEG-3 [1], 0.293 µM in the experiment with PEG-3 [2] (setting [3]) and less than 0.2 µM in the experiment on PEG-3 [2] (setting [4]).

As to `NCCCNc1nc(N)c([N+](=O)[O-])c(NC2CCCCC2)n1`, the results for the IC50 on PEG-3 [1], in the experiment on PEG-3 [2] (setting [3]) and with PEG-3 [2] (setting [4]) were 12.3 µM, 10.7 µM and 13.9 µM, respectively.

On to `Cc1cc(/C=c2/sc3nc4ccccc4n3c2=O)c(C)n1-c1ccccn1`, for which, on PEG-3 [1], the IC50 result was “inactive”. Moreover, the 50% inhibitory concentration (IC50) in the experiment on PEG-3 [2] (setting [3]) worked out at 21.7 µM; in the experiment with PEG-3 [2] (setting [4]), 30.9 µM.

Turning to `CCN1CCc2c(sc(NC(=O)c3ccc(S(=O)(=O)N4CCCCCC4)cc3)c2C(=O)NC)C1`, the IC50 result on PEG-3 [1] is “inactive”. Moreover, the IC50 in the experiment on PEG-3 [2] (setting [3]) was found to be 21.2 µM; in the experiment on PEG-3 [2] (setting [4]), 24.5 µM.

On to `COc1ccc(C2c3c(ncn(CCCN4CCOCC4)c3=N)Oc3ccc4ccccc4c32)cc1OC` (configuration not stated), for which the IC50 on PEG-3 [1] is 18.7 µM; in the experiment with PEG-3 [2] (setting [3]), 20.9 µM; in the experiment on PEG-3 [2] (setting [4]) it was 16.5 µM.

With `CC(=O)OCCNc1cc(SCc2ccco2)c2nonc2c1[N+](=O)[O-]`, the IC50 entry at PEG-3 [1] was “inactive”. The IC50 stood at 26.8 µM with PEG-3 [2] (setting [3]) and 20.4 µM with PEG-3 [2] (setting [4]).

For the molecule `COc1cc(CNCCN2CCOCC2)ccc1OCc1ccc(Cl)cc1Cl`, the IC50 at PEG-3 [1] was 19.8 µM; in the experiment on PEG-3 [2] (setting [3]) it was 20.1 µM; with PEG-3 [2] (setting [4]), 19.5 µM.

Turning to `CCN1CCN(CCNC(=O)c2ccc(/C=C3\Sc4ccccc4N(Cc4ccccc4F)C3=O)cc2)CC1`, the values for the IC50 at PEG-3 [1], in the experiment with PEG-3 [2] (setting [3]) and with PEG-3 [2] (setting [4]) were 14.9 µM, 20.2 µM and 9.63 µM, respectively.

For `CN(C)CCNc1ccc2ncn3c4ccc(O)cc4c(=O)c1c23`, the IC50 entry at PEG-3 [1] is “inactive”. The IC50 with PEG-3 [2] (setting [3]) was 54 µM; in the experiment on PEG-3 [2] (setting [4]) it was less than 0.2 µM.

Regarding `COc1cccc2sc(N(CCCN(C)C)C(=O)C(c3ccccc3)c3ccccc3)nc12`, the IC50 on PEG-3 [1], in the experiment with PEG-3 [2] (setting [3]) and in the experiment on PEG-3 [2] (setting [4]) was 18.2 µM in each case.

On to `CC1CCCC(C)N1C(=C(Cl)Cl)C(=C1SCCS1)[N+](=O)[O-]` (configuration not stated), for which the IC50 at PEG-3 [1] was 14 µM; in the experiment with PEG-3 [2] (setting [3]) it was 11.5 µM; with PEG-3 [2] (setting [4]) it was 16.6 µM.

With `COc1ccc(Nc2oc(COc3ccccc3OC)nc2C#N)cc1`, at PEG-3 [1], the IC50 entry is “inactive”. Besides, the IC50 in the experiment on PEG-3 [2] (setting [3]) came out at 5.83 µM; in the experiment on PEG-3 [2] (setting [4]), 39.4 µM.

Consider `OC1(c2ccc(Cl)c(Cl)c2)C[n+]2ccccc2N1Cc1ccccc1` (configuration not stated), for which the figures for the IC50 on PEG-3 [1], in the experiment with PEG-3 [2] (setting [3]) and in the experiment with PEG-3 [2] (setting [4]) were 15.1 µM, 16 µM and 14.1 µM, respectively.

For the molecule `Cc1cnc(NC(=O)C2CC(=O)N(c3cccc(Cl)c3)C2)s1` (configuration not stated), the IC50 at PEG-3 [1] was 13.6 µM; in the experiment with PEG-3 [2] (setting [3]), 23.5 µM; in the experiment with PEG-3 [2] (setting [4]), 3.78 µM.

In the case of `COc1cc(N=Nc2c(O)c3ccccc3[nH]c2=O)c(OC)cc1N=Nc1ccccc1`, the IC50 on PEG-3 [1] was > 100 µM (inactive); in the experiment on PEG-3 [2] (setting [3]), greater than 100 µM; in the experiment on PEG-3 [2] (setting [4]), greater than 100 µM.

Turning to `Cc1ccc(C)c(CN2CCC(CNC(=O)Nc3ccc(F)c(Cl)c3)CC2)c1`, the IC50 on PEG-3 [1] is 14.7 µM; in the experiment with PEG-3 [2] (setting [3]) it was 17.3 µM; in the experiment with PEG-3 [2] (setting [4]), 12 µM.

Consider `CCn1cc(C(=O)NCCC(C)C)c(=O)c2cc(F)c(N3CCN(C(=O)c4ccco4)CC3)cc21`, for which, on PEG-3 [1], the IC50 entry is “inactive”. The concentration for half-maximal inhibition (IC50) with PEG-3 [2] (setting [3]) is 37.8 µM; with PEG-3 [2] (setting [4]), greater than 100 µM.

Take `O=c1[nH]c(=S)[nH]c(O)c1/C=C1\C=Nc2ccccc21`: the IC50 entry at PEG-3 [1] is “inactive”. The figures for the IC50 in the experiment with PEG-3 [2] (setting [3]) and in the experiment on PEG-3 [2] (setting [4]) were greater than 100 µM and 17.6 µM, respectively.

With `Cc1ccc2nc(N(CCCN(C)C)C(=O)c3ccc4c(c3)CCCC4)sc2c1`, the IC50 on PEG-3 [1] is 19.8 µM; with PEG-3 [2] (setting [3]), 22 µM; with PEG-3 [2] (setting [4]), 17.6 µM.

In the case of `COc1ccc(CC(=O)N(Cc2ccccc2)c2ccccc2)cc1S(=O)(=O)N1CCOCC1`, the IC50 entry on PEG-3 [1] is “inactive”. The IC50 with PEG-3 [2] (setting [3]) was 50.5 µM; with PEG-3 [2] (setting [4]), greater than 100 µM.

In the case of `Cc1ccc(-c2nnc(N3CCN(c4ccccn4)CC3)c3ccccc23)cc1`, the values for the IC50 on PEG-3 [1], in the experiment with PEG-3 [2] (setting [3]) and in the experiment on PEG-3 [2] (setting [4]) were 18.2 µM, 20.9 µM and 15.4 µM, respectively.

Consider `COc1ccc(NC(=O)Nc2nc(C(N)C3CCCCC3)cs2)cc1` (configuration not stated), for which the IC50 on PEG-3 [1] is 20 µM; with PEG-3 [2] (setting [3]), 17.9 µM; in the experiment on PEG-3 [2] (setting [4]) it was 22.1 µM.

With `COc1cccc(/C=C2/Sc3ccc(C(=O)NCCCN4CCCC4)cc3NC2=O)c1`, the figures for the IC50 at PEG-3 [1], in the experiment with PEG-3 [2] (setting [3]) and with PEG-3 [2] (setting [4]) were 17.1 µM, 21.4 µM and 12.8 µM, respectively.

As to `O=C(Nc1ccccc1)c1nc[nH]c1C(=O)NCCCNC(=O)c1[nH]cnc1C(=O)Nc1ccccc1`, on PEG-3 [1], the IC50 result is “inactive”. The IC50 was 17.2 µM in the experiment on PEG-3 [2] (setting [3]) and greater than 100 µM in the experiment with PEG-3 [2] (setting [4]).

These data come from PubChem BioAssay AID624167 (Sanford-Burnham Center for Chemical Genomics, 2012).
